Experimental data from US20250009742A1 (priority 2021, published 2025).

Tests used:
intracellular HBV DNA = experiment: Real-time PCR for intracellular HBV DNA in HepAD38 cells; assay type: cell-based; details: Hepatitis B virus, HePAD38, 65 h, 65 hours treatment
[1] = Cell viability assay (EZ-Cytox), cytotoxicity; assay type: cell-based; details: human, HepAD38 cells; for viability at 65 h, 100 µM: read-out: Cytotoxicity % Livability (@100 μM)
Experimental: HepAD38 cells were cultured for 2 days in Dulbecco's Modified Eagle's medium (Welgene, LM001-05) supplemented with 10% FBS without tetracycline. […] After 65 hours of treatment, viability was measured using EZ-Cytox cell viability assay kit (Daeil Lab Service) according to the manufacturer's instructions. The absorbance was measured at 450 nm using a spectrophotometer (Spark, Tecan).

Structure (SMILES) | IC50 (intracellular HBV DNA) [nM] | CC50 at 65 h [1] [nM] | viability at 65 h, 100 µM [1] [%]
COC12CC(N(Cc3cc(C(F)(F)F)[nH]n3)C(=O)Nc3cccc(C(F)F)c3)(C1)C2 [Example 181, 3-(3-(difluoromethyl)phenyl)-1-(3-methoxybicyclo[1.1.1]pentan-1-yl)-1-((5-(trifluoromethyl)-1H-pyrazol-3-yl)methyl)urea] | 130 | > 100000 | 64.9
COc1ncc(N(Cc2cc(C(F)F)[nH]n2)C(=O)Nc2cccc(C(F)F)n2)cn1 [Example 179, 1-((5-(difluoromethyl)-1H-pyrazol-3-yl)methyl)-3-(6-(difluoromethyl)pyridin-2-yl)-1-(2-methoxypyrimidin-5-yl)urea] | 700 | > 100000 | 79.3
COc1ccc(N(Cc2cc(C(F)F)[nH]n2)C(=O)Nc2ccc(F)c(C(F)F)c2)nn1 [Example 195, 1-((5-(difluoromethyl)-1H-pyrazol-3-yl)methyl)-3-(3-(difluoromethyl)-4-fluorophenyl)-1-(6-methoxypyridazin-3-yl)urea] | > 1100 | > 100000 | 100
COc1cc(N(Cc2cc(C(F)F)[nH]n2)C(=O)Nc2ccc(F)c(C(F)F)c2)cnn1 [Example 201, 1-((5-(difluoromethyl)-1H-pyrazol-3-yl)methyl)-3-(3-(difluoromethyl)-4-fluorophenyl)-1-(6-methoxypyridazin-4-yl)urea] | 28 | > 100000 | 107
COc1ncc(N(Cc2cc(C#N)[nH]n2)C(=O)Nc2cccc(C(F)F)c2)cn1 [Example 180, 1-((5-cyano-1H-pyrazol-3-yl)methyl)-3-(3-(difluoromethyl)phenyl)-1-(2-methoxypyrimidin-5-yl)urea] | 64 | > 100000 | 88.1
CCOC=Cc1c(CN(C(=O)Nc2ccc(F)c(Cl)c2)c2ccc(OC)nc2)n[nH]c1C(F)(F)F [Example 83, 3-(3-chloro-4-fluorophenyl)-1-((4-(2-ethoxyvinyl)-5-(trifluoromethyl)-1H-pyrazol-3-yl)methyl)-1-(6-methoxypyridin-3-yl)urea] | > 1100 | > 100000 | 95.1
COC12CC(N(Cc3cc(C(F)(F)F)[nH]n3)C(=O)Nc3cc(F)c(F)c(F)c3)(C1)C2 [Example 222, 1-(3-methoxybicyclo[1.1.1]pentan-1-yl)-1-((5-(trifluoromethyl)-1H-pyrazol-3-yl)methyl)-3-(3,4,5-trifluorophenyl)urea] | 120 | 31700 | 2.5
COc1ccc(N(Cc2nn(C)c3c2COCC3)C(=O)Nc2ccc(F)c(Cl)c2)cc1 [Example 39, 3-(3-chloro-4-fluorophenyl)-1-(4-methoxyphenyl)-1-((1-methyl-1,4,6,7-tetrahydropyrano[4,3-c]pyrazol-3-yl)methyl)urea] | 330 | > 100000 | 96
COc1cc(N(Cc2n[nH]c3c2COCC3)C(=O)Nc2ccc(F)c(Cl)c2)ccn1 [Example 73, 3-(3-chloro-4-fluorophenyl)-1-(2-methoxypyridin-4-yl)-1-((1,4,6,7-tetrahydropyrano[4,3-c]pyrazol-3-yl)methyl)urea] | 19 | > 100000 | 96.6
COc1ncc(N(Cc2cc(C(F)(F)F)[nH]n2)C(=O)Nc2cc(F)c(F)c(C#N)n2)cn1 [Example 151, 3-(6-cyano-4,5-difluoropyridin-2-yl)-1-(2-methoxypyrimidin-5-yl)-1-((5-(trifluoromethyl)-1H-pyrazol-3-yl)methyl)urea] | > 1100 | > 100000 | 87.4
COc1ncc(N(Cc2cc(C#N)[nH]n2)C(=O)Nc2ccc(C#N)c(C(F)F)c2)cn1 [Example 153, 1-((5-cyano-1H-pyrazol-3-yl)methyl)-3-(4-cyano-3-(difluoromethyl)phenyl)-1-(2-methoxypyrimidin-5-yl)urea] | 210 | > 100000 | 94.2
N#Cc1ccc(N(Cc2cc(C(F)(F)F)[nH]n2)C(=O)Nc2ccc(F)c(Cl)c2)cn1 [Example 130, 3-(3-chloro-4-fluorophenyl)-1-(6-cyanopyridin-3-yl)-1-((5-(trifluoromethyl)-1H-pyrazol-3-yl)methyl)urea] | 65 | > 100000 | 68
COc1cncc(N(Cc2n[nH]c3c2COCC3)C(=O)Nc2ccc(F)c(Cl)c2)c1 [Example 75, 3-(3-chloro-4-fluorophenyl)-1-(5-methoxypyridin-3-yl)-1-((1,4,6,7-tetrahydropyrano[4,3-c]pyrazol-3-yl)methyl)urea] | 36 | > 100000 | 92.1
COc1ncc(N(Cc2cc(C(F)(F)F)[nH]n2)C(=O)Nc2ccc(F)c(Cl)c2)cn1 [Example 80, 3-(3-chloro-4-fluorophenyl)-1-(2-methoxypyrimidin-5-yl)-1-((5-(trifluoromethyl)-1H-pyrazol-3-yl)methyl)urea] | 19 | 88400 | 21.4
COc1ncc(N(Cc2cc(C#N)[nH]n2)C(=O)Nc2ccc(C#N)c(Cl)c2)cn1 [Example 9] | 310 | > 100000 | 105
CC(C)(O)c1cc(N(Cc2n[nH]c3c2CCOC3)C(=O)Nc2ccc(F)c(Cl)c2)on1 [Example 115, 3-(3-chloro-4-fluorophenyl)-1-(3-(2-hydroxypropan-2-yl)isoxazol-5-yl)-1-((1,4,5,7-tetrahydropyrano[3,4-c]pyrazol-3-yl)methyl)urea] | > 1100 | > 100000 | 84.1
N#Cc1ccc(N(Cc2n[nH]c3c2COCC3)C(=O)Nc2ccc(F)c(Cl)c2)cn1 [Example 125, 3-(3-chloro-4-fluorophenyl)-1-(6-cyanopyridin-3-yl)-1-((1,4,6,7-tetrahydropyrano[4,3-c]pyrazol-3-yl)methyl)urea] | 230 | > 100000 | 109
COc1ncc(N(Cc2cc(C(F)F)[nH]n2)C(=O)Nc2ccc(F)c(C#N)c2)cn1 [Example 155, 3-(3-cyano-4-fluorophenyl)-1-((5-(difluoromethyl)-1H-pyrazol-3-yl)methyl)-1-(2-methoxypyrimidin-5-yl)urea] | 35 | > 100000 | 97
N#Cc1cncc(N(Cc2n[nH]c3c2CCCO3)C(=O)Nc2ccc(F)c(Cl)c2)c1 [Example 120, 3-(3-chloro-4-fluorophenyl)-1-(5-cyanopyridin-3-yl)-1-((1,4,5,6-tetrahydropyrano[2,3-c]pyrazol-3-yl)methyl)urea] | 95 | > 100000 | 92
COc1ncc(N(Cc2cc(C(F)(F)F)[nH]n2)C(=O)Nc2cc(F)c(F)c(Cl)n2)cn1 [Example 13, 3-(6-chloro-4,5-difluoropyridin-2-yl)-1-(2-methoxypyrimidin-5-yl)-1-((5-(trifluoromethyl)-1H-pyrazol-3-yl)methyl)urea] | 210 | > 100000 | 100
COc1ccc(N(Cc2n[nH]c3c2COCC3)C(=O)Nc2ccc(F)c(Cl)c2)cn1 [Example 55, 3-(3-chloro-4-fluorophenyl)-1-(6-methoxypyridin-3-yl)-1-((1,4,6,7-tetrahydropyrano[4,3-c]pyrazol-3-yl)methyl)urea] | 17 | > 100000 | 102
CC(=O)c1ccc(N(Cc2n[nH]c3c2CCOC3)C(=O)Nc2ccc(F)c(Cl)c2)cn1 [Example 21, 1-(6-acetylpyridin-3-yl)-3-(3-chloro-4-fluorophenyl)-1-((1,4,5,7-tetrahydropyrano[3,4-c]pyrazol-3-yl)methyl)urea] | > 1100 | > 100000 | 
COc1ncc(N(Cc2cc(C(F)(F)F)[nH]n2)C(=O)Nc2cccc(C#N)n2)cn1 [Example 145, 3-(6-cyanopyridin-2-yl)-1-(2-methoxypyrimidin-5-yl)-1-((5-(trifluoromethyl)-1H-pyrazol-3-yl)methyl)urea] | > 1100 | > 100000 | 99.4
COc1ccc(N(Cc2nn(CCO)c3c2CCC3)C(=O)Nc2ccc(F)c(Cl)c2)cn1 [Example 67, 3-(3-chloro-4-fluorophenyl)-1-((1-(2-hydroxyethyl)-1,4,5,6-tetrahydrocyclopenta[c]pyrazol-3-yl)methyl)-1-(6-methoxypyridin-3-yl)urea] | > 300 | > 100000 | 
COc1ccc(N(Cc2cc(C(F)(F)F)[nH]n2)C(=O)Nc2ccc(F)c(Cl)c2)nn1 [Example 96, 3-(3-chloro-4-fluorophenyl)-1-(6-methoxypyridazin-3-yl)-1-((5-(trifluoromethyl)-1H-pyrazol-3-yl)methyl)urea] | > 1100 | > 100000 | 93.4
COc1cc(N(Cc2n[nH]c3c2OCCO3)C(=O)Nc2ccc(F)c(Cl)c2)ccn1 [Example 71, 3-(3-chloro-4-fluorophenyl)-1-((5,6-dihydro-1H-[1,4]dioxino[2,3-c]pyrazol-3-yl)methyl)-1-(2-methoxypyridin-4-yl)urea] | 76 | > 100000 | 
COc1ncc(N(Cc2cc(C(F)(F)F)[nH]n2)C(=O)Nc2ccc(C(F)F)c(F)c2)cn1 [Example 206, 3-(4-(difluoromethyl)-3-fluorophenyl)-1-(2-methoxypyrimidin-5-yl)-1-((5-(trifluoromethyl)-1H-pyrazol-3-yl)methyl)urea] | 180 | > 100000 | 89.6
